Like-named read-outs stand apart in the source and are kept apart here.
Columns and labels:
P. falciparum strain 3D7 [1] = test system: P. falciparum strain 3D7; parameters: method as in PMID 27616047, PMID 29880399, PMID 25089811; conditions: reference compounds; read-out: IC50 a (In vitro IC50 values against P. falciparum); cited from earlier work
PfCK = biological target: T1, PfCK (Plasmodium falciparum, UniProt Q8IM71); experiment: Spectrophotometric coupled enzymatic assay for PfCK activity (substrate choline); format: biochemical; conditions: for remaining activity at 25 µM: read-out: PfCK Fractional Activity at 25 µM
T1 construct: A truncated form of PfCK (Δ79-440) featuring an N-terminal 6× His-tag; 6xHis (N); host or cells: Escherichia coli BL21 (DE3) Star
Experimental: A truncated form of PfCK (Δ79-440) featuring an N-terminal 6× His-tag was purchased from Genescript (Piscataway, NJ, USA), cloned into a pET-28a vector and transformed into Escherichia coli BL21 (DE3) Star cells (Invitrogen, Carlsbad, CA, USA). The transformed bacteria were cultured in Luria-Bertani (LB) medium at 37 °C until OD600 = 0.6 and the expression was induced with 1 mM isopropyl β-D-1-thiogalactopyranoside (IPTG). The cell culture was grown overnight at 20 °C and 180 rpm. Cells were pelleted by centrifugation at 10,000 rpm, resuspended in 50 mM Tris/HCl pH 7.5, 500 mM NaCl, 0.2 mM phenylmethylsulphonyl fluoride (PMSF, Sigma Aldrich, St. Luis, MO, USA), DNase (Sigma Aldrich, St. Luis, MO, USA), 0.5 mM β-mercaptoethanol (Sigma Aldrich, St. Luis, MO, USA) and sonicated. Separation of the soluble from the insoluble fraction was obtained by centrifugation at 15,000 rpm and 4 °C. The target enzyme was purified by a two-step purification protocol. In the first step, the cell lysate was incubated for 45 min with Ni-NTA resin (Qiagen, Venlo, The Netherlands) in a gravity column. Then, the column was washed with 40 column volumes (CV) of 50 mM Tris/HCl pH 7.5, 300 mM NaCl, 10 mM imidazole and 1 CV of 50 mM Tris/HCl pH 7.5, 300 mM NaCl, 40 mM imidazole. Finally, the His-tagged enzyme was eluted from the column using a 50 mM Tris/HCl pH 7.5, 300 mM NaCl, 400 mM imidazole buffer. A subsequent size-exclusion chromatography step was implemented to further polish the sample using a HiPrep 26/60 Sephacryl 100 HR column (GE Healthcare, Little Chalfont, Buckinghamshire, UK) previously equilibrated with 20 mM Tris/HCl pH 7.5, 150 mM NaCl buffer. This second purification step afforded a pure protein sample. The protein production yield was estimated to be nearly 2.5 mg of recombinant enzyme per liter of bacterial culture.
A spectrophotometric 96-well plate assay for PfCK activity was established based on an assay previously described. The reaction mix was composed as follows: 100 mM Tris/HCl pH 7.5, 100 mM KCl, 10 mM MgCl2, 0.5 mM phosphoenolpyruvate, 0.25 mM NADH, 4 U of pyruvate kinase, 5 U lactate dehydrogenase, 2 mM ATP, 4 mM choline chloride and different concentrations of the selected compounds. All the necessary compounds for the assay were purchased from Sigma Aldrich (St. Luis, MO, USA) and the final assay volume was 200 μL. The enzymatic reaction was initiated by the addition of the enzyme at less than 10 nM concentration and the reaction rates were measured by monitoring the decrease in the absorbance at 340 nm for 20 min at room temperature using a Spark10M instrument (Tecan). Finally, the IC50 values for each compound were determined by plotting the enzyme fractional activity (f.a.) against the logarithm of compound concentration (log[I]). Curve-fitting was performed with a dose-response curve from Origin (OriginLab Corporation, Northampton, MA, USA), using the following equation: f.a.=1/1+10^logIC50−logI
All data points were collected in triplicate and the final dose-response curves were plotted with MATLAB (R2018a (9.4.0.813654), 2018, MathWorks, Natick, MA, USA). See curves in Figure S1 in Supplementary Materials.

P. falciparum strain 3D7 [2] = experiment: Antimalarial activity, P. falciparum lactate dehydrogenase growth inhibition assay; format: cell-based, Plasmodium falciparum; conditions: for IC50: Plasmodium falciparum, Erythrocyte, P. falciparum 3D7 in human erythrocytes, 72 h, LDH readout, read-out: IC50 a (In vitro IC50 values against P. falciparum)
Experimental: Parasites of the P. falciparum strain 3D7 were grown in fresh group 0 positive human erythrocytes, obtained from the Centro Regional de Transfusion Sanguínea-SAS (Granada, Spain) and suspended at 5% haematocrit in RPMI 1640 containing 2% human serum, 0.2% NaHCO3, 0.5% Albumax II, 150 μM hypoxanthine, and […] gentamicin. Flasks were incubated at 37 °C, under 5% CO2 and 95% air mixture. […] The stock culture was then diluted with complete medium and non-parasitized erythrocytes to yield a haematocrit of 2% and parasitemia of 0.25%. Stock solutions of the test drugs were prepared at an initial concentration of 200 mM in DMSO, serially diluted and dispensed into triplicate in 96-well plates to yield final concentrations ranging from 0.0039 to 2 μM. The final well volume was 200 μL with a final concentration of DMSO 0.001%. Each plate also included positive growth controls, where only medium were added, and negative growth controls with 100 nM of chloroquine. […] A multidrop dispenser was used to add 50 μL of synchronized parasite culture per well. After 72 h of growth in presence of test compounds, the plates were stored frozen at −20 °C for at least 24 h. Next, they were thawed at room temperature. Parasite growth inhibition assays and IC50 determinations were carried out following the P. falciparum lactate dehydrogenase assay where parasite viability is quantified by measuring LDH activity upon APAD+ addition, a cofactor that is specific to the Plasmodium enzyme. To evaluate LDH activity, 140 μL of freshly made reaction mix, containing 143 mM sodium L-lactate, 143 μM APAD, 178.75 μM NBT, 1 U/mL diaphorase, 0.7% Tween 20 and 100 mM Tris-HCl (pH 8.0) were dispensed into plates. After 10 min of incubation in the dark at room temperature, absorbance was measured at 630 nm with a vmax precision multiwell plate reader from Molecular Devices, by using the accompanying SOFT maxPro software for analysis.

T1 sequence (Q8IM71 entry or part of it): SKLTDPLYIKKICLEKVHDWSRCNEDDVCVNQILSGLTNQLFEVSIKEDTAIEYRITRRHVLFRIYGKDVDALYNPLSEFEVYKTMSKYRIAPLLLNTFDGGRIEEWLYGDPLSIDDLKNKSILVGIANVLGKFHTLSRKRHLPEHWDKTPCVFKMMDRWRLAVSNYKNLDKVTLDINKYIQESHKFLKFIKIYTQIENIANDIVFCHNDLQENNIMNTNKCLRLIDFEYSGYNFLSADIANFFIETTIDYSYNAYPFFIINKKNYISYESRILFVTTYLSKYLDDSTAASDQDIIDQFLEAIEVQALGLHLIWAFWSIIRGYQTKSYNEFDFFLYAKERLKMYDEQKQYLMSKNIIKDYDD

For `C/[N+](c1ccc(Cl)cc1)=c1\ccn(Cc2ccc(-c3ccc(Cn4cc/c(=[N+](/C)c5ccc(Cl)cc5)c5ccccc54)cc3)cc2)c2ccccc12` [RSM-932A], the IC50 (P. falciparum strain 3D7 [1]) is listed as 26.5 nM.
In the case of `[Br-].[Br-].c1cc2c(s1)c(N1CCCCCC1)nc[n+]2Cc1ccc(-c2ccc(C[n+]3cnc(N4CCCCCC4)c4sccc43)cn2)nc1` [Fa-26, 1,1’-([2,2’-bipyridine]-5,5’-diylbis(methylene))bis(4-(azepan-1-yl)thieno[3,2-d]pyrimidin-1-ium) bromide], the remaining activity at 25 µM (PfCK) is reported as 78 ± 8.13%, the IC50 (P. falciparum strain 3D7 [2]) is reported as 209 nM and the melting point is reported as 310 to 312 °C.
Work on `[Br-].[Br-].c1cc2c(N3CCCCC3)nc[n+](Cc3ccc(CCc4ccc(C[n+]5cnc(N6CCCCC6)c6ccsc65)cc4)cc3)c2s1` [Fg-31, 1,1’-((ethane-1,2-diylbis(4,1-phenylene))bis(methylene))bis(4-(piperidin-1-yl)thieno[2,3-d]pyrimidin-1-ium) bromide] yielded a remaining activity at 25 µM (PfCK) of 87.4 ± 2.2%, an IC50 (P. falciparum strain 3D7 [2]) of 34.7 nM and a melting point of 295 to 297 °C.
For `CN(C)c1cc[n+](Cc2ccc(CCCCc3ccc(C[n+]4ccc(N(C)c5ccc(Cl)cc5)cc4)cc3)cc2)cc1` [BR-33], the IC50 (P. falciparum strain 3D7 [1]) is listed as 45 ± 3 nM.
With `[Br-].[Br-].c1cc2c(s1)c(N1CCCCC1)nc[n+]2Cc1ccc(-c2ccc(C[n+]3cnc(N4CCCCC4)c4sccc43)cn2)nc1` [Fa-27, 1,1’-([2,2’-bipyridine]-5,5’-diylbis(methylene))bis(4-(piperidin-1-yl)thieno[3,2-d]pyrimidin-1-ium) bromide] the remaining activity at 25 µM (PfCK) was 82.6 ± 4.9%, the IC50 (P. falciparum strain 3D7 [2]) was 120 nM and the melting point was 307 to 309 °C.
For `CN(C)c1cc[n+](Cc2ccc(CCCCc3ccc(C[n+]4ccc(N(C)C)cc4)cc3)cc2)cc1` [MN58b], the IC50 (P. falciparum strain 3D7 [1]) is listed as 3.5 nM.
In the case of `C[N+]1(C)CCOC(O)(c2ccc(-c3ccc(C4(O)C[N+](C)(C)CCO4)cc3)cc2)C1` (stereo not shown) [HC-3], the IC50 (P. falciparum strain 3D7 [1]) is listed as greater than 50000 nM.
Compound `[Br-].[Br-].c1cc2c(s1)c(N1CCCC1)cc[n+]2Cc1ccc(CCc2ccc(C[n+]3ccc(N4CCCC4)c4sccc43)cc2)cc1` [Fg-11, 4,4’-((ethane-1,2-diylbis(4,1-phenylene))bis(methylene))bis(7-(pyrrolidin-1-yl)thieno[3,2-b]pyridin-4-ium) bromide] has an IC50 (PfCK; IC50 PfCK b (compound concentration required to inhibit PfCK enzyme by 50%), substrate choline 4 mM, ATP 2 mM) of 16500 ± 1430 nM, a remaining activity at 25 µM (PfCK) of 33 ± 1.48% and an IC50 (P. falciparum strain 3D7 [2]) of 232 nM. For the same compound, the melting point was 253 to 255 °C.
`[Br-].[Br-].c1cc2c(s1)c(N1CCCC1)nc[n+]2Cc1ccc(OCCOc2ccc(C[n+]3cnc(N4CCCC4)c4sccc43)cc2)cc1` [Ff-8, 1,1’-(((ethane-1,2-diylbis(oxy))bis(4,1-phenylene))bis(methylene))bis(4-(pyrrolidin-1-yl)thieno[3,2-d]pyrimidin-1-ium) bromide] gave a remaining activity at 25 µM (PfCK) of 63.1 ± 6.74%, an IC50 (P. falciparum strain 3D7 [2]) of 35.2 nM and a melting point of 217 to 219 °C.
In the case of `[Br-].[Br-].c1cc2c(s1)c(N1CCCC1)nc[n+]2Cc1ccc(-c2ccc(C[n+]3cnc(N4CCCC4)c4sccc43)cn2)nc1` [Fg-17, 1,1’-([2,2’-bipyridine]-5,5’-diylbis(methylene))bis(4-(pyrrolidin-1-yl)thieno[3,2-d]pyrimidin-1-ium) bromide], the remaining activity at 25 µM (PfCK) is reported as 50.3 ± 7.88%, the “fold difference in antimalarial activity, bipyridinyl vs biphenylic counterparts” value (P. falciparum strain 3D7 [2]; Fg-13 and Fg-17 vs Fg-14 and Fa-21) is reported as greater than 10 fold and the IC50 (P. falciparum strain 3D7 [2]) is reported as 227 nM. It also gave a melting point of 330 to 332 °C.
Work on `[Br-].[Br-].c1cc2c(s1)c(N1CCCC1)cc[n+]2Cc1ccc(OCCOc2ccc(C[n+]3ccc(N4CCCC4)c4sccc43)cc2)cc1` [Ff-2, 4,4’-(((ethane-1,2-diylbis(oxy))bis(4,1-phenylene))bis(methylene))bis(7-(pyrrolidin-1-yl)thieno[3,2-b]pyridin-4-ium) bromide] yielded a remaining activity at 25 µM (PfCK) of 81.8 ± 3.93%, an IC50 (P. falciparum strain 3D7 [2]) of 74 nM and a melting point of 280 to 282 °C.
For `CN(C)c1cc[n+](Cc2ccc(-c3ccc(C[n+]4ccc(N(C)c5ccc(Cl)cc5)cc4)cc3)cc2)cc1` [BR-31], the IC50 (P. falciparum strain 3D7 [1]) is listed as 7 ± 0.6 nM.
